Measured values reported in patent US6716852B2, “Amino acid derivatives and use thereof as NEP, ACE and ECE inhibitors” (Les Laboratories Servier, priority 2000, dated 2004).

Experiments:
Assay type in all cases: biochemical
Neutral endopeptidase = target: T1, Neutral endopeptidase (Oryctolagus cuniculus, UniProt P08049); experiment: Inhibition of neutral endopeptidase (fluorescent substrate DGNPA); conditions: NEP purified from rabbit kidney
T1 construct: Neutral endopeptidase is purified from rabbit kidney; from tissue; host or cells: rabbit kidney
T1 sequence (P08049 1-750): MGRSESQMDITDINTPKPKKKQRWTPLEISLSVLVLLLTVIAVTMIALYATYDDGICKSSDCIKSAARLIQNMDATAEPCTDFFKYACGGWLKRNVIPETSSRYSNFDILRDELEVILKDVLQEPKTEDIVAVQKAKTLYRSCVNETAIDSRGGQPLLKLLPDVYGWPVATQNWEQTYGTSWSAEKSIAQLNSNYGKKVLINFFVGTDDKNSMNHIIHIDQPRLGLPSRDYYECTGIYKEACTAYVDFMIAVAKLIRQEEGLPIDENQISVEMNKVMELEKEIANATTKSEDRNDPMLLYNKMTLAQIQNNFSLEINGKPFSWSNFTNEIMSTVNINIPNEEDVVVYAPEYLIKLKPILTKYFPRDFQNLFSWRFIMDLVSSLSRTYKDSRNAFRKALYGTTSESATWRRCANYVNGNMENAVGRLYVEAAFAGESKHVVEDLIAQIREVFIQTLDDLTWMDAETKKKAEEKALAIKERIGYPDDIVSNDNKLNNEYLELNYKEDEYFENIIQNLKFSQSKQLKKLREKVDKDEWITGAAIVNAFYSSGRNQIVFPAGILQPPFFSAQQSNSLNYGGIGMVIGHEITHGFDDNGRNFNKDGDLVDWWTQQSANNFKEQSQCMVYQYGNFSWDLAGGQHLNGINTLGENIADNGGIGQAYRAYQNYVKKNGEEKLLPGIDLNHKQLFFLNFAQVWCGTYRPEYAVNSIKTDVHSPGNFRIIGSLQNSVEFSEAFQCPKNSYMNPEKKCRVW
Text: Neutral endopeptidase is purified from rabbit kidney according to the procedure described by Aubry et al. (Biochem. Cell Biol., 1987, 65, pp. 1037-1042).

[1] = target: T2, angiotensin I converting enzyme (ACE) (Rattus norvegicus, UniProt P47820); experiment: Inhibition of angiotensin I converting enzyme (substrate N-Cbz-Phe-His-Leu); conditions: ACE purified from rat testicle
T2 construct: ACE is purified from rat testicle; from tissue; host or cells: rat testicle
T2 sequence (P47820 1-775 isoform P47820-2): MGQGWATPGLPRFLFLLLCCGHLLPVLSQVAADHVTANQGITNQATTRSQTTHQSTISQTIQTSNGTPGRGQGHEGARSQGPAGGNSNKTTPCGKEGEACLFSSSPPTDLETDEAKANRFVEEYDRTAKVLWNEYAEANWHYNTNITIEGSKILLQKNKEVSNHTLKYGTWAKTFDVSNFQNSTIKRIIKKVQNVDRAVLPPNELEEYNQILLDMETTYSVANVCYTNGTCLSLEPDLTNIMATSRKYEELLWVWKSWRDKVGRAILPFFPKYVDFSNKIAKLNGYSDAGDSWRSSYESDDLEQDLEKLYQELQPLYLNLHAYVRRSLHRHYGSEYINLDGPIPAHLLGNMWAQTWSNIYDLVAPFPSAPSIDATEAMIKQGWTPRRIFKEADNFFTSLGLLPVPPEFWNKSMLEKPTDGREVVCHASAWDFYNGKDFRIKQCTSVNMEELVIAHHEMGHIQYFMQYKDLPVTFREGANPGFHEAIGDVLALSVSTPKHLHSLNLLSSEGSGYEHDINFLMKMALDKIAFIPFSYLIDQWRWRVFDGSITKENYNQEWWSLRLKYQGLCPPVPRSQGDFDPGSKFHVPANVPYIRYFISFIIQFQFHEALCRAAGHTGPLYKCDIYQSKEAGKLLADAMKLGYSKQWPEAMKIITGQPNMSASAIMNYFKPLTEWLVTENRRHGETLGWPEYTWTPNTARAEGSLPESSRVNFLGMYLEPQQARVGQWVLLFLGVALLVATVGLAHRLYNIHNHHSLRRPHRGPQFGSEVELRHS
Experimental: ACE is purified from rat testicle according to the procedure described by Pantaliano et al. (Biochemistry, 1984, 23, pp. 1037-1042).
The enzyme activity is measured using the synthetic substrate N-Cbz-Phe-His-Leu, Km=[…] (Piquilloud Y. et al., Biochem. Biophys. Acta, 1970, 206, pp. 136-142).

ECE-1c = target: T3, ECE-1c (Homo sapiens, UniProt P42892); experiment: Inhibition of endothelin converting enzyme (radiolabelled BigET-1 (19-35) substrate); conditions: ECE-1c expressed in Cos-7 cells; preincubated 10 minutes at 37° C., pH 6.5; read-out: Ki, inhibition of big endothelin converting enzyme
T3 construct: made in house; host or cells: Cos-7 cells (pcDNA3 vector, electroporation); membrane fraction extracted with 1% beta-octylglucose
T3 sequence (P42892 1-754 isoform P42892-3): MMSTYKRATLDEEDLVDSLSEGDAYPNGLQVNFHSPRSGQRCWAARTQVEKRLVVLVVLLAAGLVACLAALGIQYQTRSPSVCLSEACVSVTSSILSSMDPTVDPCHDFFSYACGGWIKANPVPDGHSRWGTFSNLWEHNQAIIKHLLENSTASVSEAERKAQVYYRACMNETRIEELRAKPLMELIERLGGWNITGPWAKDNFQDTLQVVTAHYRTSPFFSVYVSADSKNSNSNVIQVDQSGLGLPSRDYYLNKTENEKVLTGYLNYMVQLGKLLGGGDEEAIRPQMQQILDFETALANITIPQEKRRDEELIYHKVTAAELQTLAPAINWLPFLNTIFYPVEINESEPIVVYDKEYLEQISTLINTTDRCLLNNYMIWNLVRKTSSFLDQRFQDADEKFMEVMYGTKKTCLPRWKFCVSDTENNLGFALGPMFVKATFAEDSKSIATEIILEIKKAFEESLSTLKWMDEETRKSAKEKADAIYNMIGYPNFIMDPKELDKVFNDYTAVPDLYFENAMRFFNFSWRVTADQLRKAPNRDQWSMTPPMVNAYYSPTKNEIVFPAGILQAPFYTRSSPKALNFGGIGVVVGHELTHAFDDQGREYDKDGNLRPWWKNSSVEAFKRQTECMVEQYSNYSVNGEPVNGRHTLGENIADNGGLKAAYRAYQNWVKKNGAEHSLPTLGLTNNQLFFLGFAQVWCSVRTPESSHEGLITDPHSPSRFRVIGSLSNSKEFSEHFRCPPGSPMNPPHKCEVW
Experimental: The cDNA of ECE-1c (membrane form of the enzyme, Biochem. J., 1997, 328, pp. 871-877), was inserted into a pcDNA3 eucaryotic expression vector and then transfected by electroporation and expressed in Cos-7 cells.
To measure the ECE activity, the cells are homogenised and the membrane fraction is recovered. The enzyme is extracted by dissolution in β-octylglucose (1%).
The peptide BigET-1 (19-35) was prepared by solid phase synthesis in Fmoc chemistry and purified by semi-preparative HPLC. The propionylation of the peptide was effected by the action of N-succinimidyl-[2,3-^3H]-propionate on the peptide BigET-1 (19-35) and the radiolabelled product was purified by HPLC. The specific activity of the substrate is 97 Ci/mmole.
ECE-1c (10 μl of a solution diluted to 1/10) is dissolved in 400 μl of Trismaleate 50 mM, pH 6.5, in the presence of 250 mM NaCl. The reaction is initiated by the addition of 10 μl of the radioactive substrate (final concentration 1×10^−9 M). After incubation for 1 hour at 37° C., the reaction is stopped by the addition of 600 μl of ethyl acetate. The metabolite is separated from the intact substrate by liquid—liquid extraction. The radioactivity of the metabolite is determined by liquid scintillation. The kinetic constants of the substrate are: Km=[…] and Vmax=2.98±0.24 mmol/mg. prot./min.
The controls of 0% and 100% degradation are obtained, respectively, by incubation of the substrate with the inactivated enzyme and with the native enzyme in the absence of inhibitors.

Compound | Ki (Neutral endopeptidase) | Ki [1] | Ki (ECE-1c)
O=C(N[C@@H](Cc1c[nH]c2ccccc12)C(=O)O)C(CS)C1CCc2cc(Br)ccc21 (stereo partly drawn) [13 (2S-3R-4S), N-[2-(5-Bromo-2,3-dihydro-1H-inden-1-yl)-3-mercaptopropanoyl]-tryptophan] | 3.28 ± 0.35 nM | 4.09 ± 0.49 nM | 24.4 ± 1.4 nM
O=C(N[C@@H](Cc1c[nH]c2ncccc12)C(=O)O)C(CS)C1CCc2cc(Br)ccc21 (stereo partly drawn) [33 (2S-3R-4S), N-[2-(5-Bromo-2,3-dihydro-1H-inden-1-yl)-3-mercaptopropanoyl]-3-(1H-pyrrolo [2,3-b]pyridin-3-yl)alanine] | 2.91 ± 0.67 nM | 1.32 ± 0.17 nM | 23.3 ± 3.2 nM
O=C(N[C@@H](Cc1c[nH]c2c1ccc1cccnc12)C(=O)O)C(CS)C1CCc2cc(Br)ccc21 (stereo partly drawn) [63 (2S-3R-4S), N-[2-(5-Bromo-2,3-dihydro-1H-inden-1-yl)-3-mercaptopropanoyl]-3-(1H-pyrrolo[3,2-h]quinolin-3-yl)alanine] | 10.2 ± 0.3 nM | 3.7 ± 0.38 nM | 21.2 ± 2.5 nM
